Earlier results, collected in patent US20060160088A1, “Diagnostics and therapeutics for diseases associated with g protein-coupled receptor 40 (gpr40)” (Bayer Healthcare AG, priority 2003, published 2006).

Molecular target: GPR40 (Homo sapiens, UniProt O14842)
Conditions: activation of GPR40; most potent fatty acid tested

Sequence of GPR40 (O14842 whole entry): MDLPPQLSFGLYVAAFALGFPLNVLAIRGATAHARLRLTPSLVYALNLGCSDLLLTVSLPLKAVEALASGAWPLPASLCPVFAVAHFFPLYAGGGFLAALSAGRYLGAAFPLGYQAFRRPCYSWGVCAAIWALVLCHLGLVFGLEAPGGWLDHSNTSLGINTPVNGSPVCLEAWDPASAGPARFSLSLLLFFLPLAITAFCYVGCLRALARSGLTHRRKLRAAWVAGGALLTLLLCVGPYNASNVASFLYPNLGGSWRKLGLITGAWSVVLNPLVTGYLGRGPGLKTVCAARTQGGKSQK

pEC(50): 5.7
Compound: CCCCCCCCC#CCC#CCC#CCCCC(=O)O [Eicosatriynoic acid]
